For 4 molecules, EC50, inhibition and half-life results are on record in patent US11560400B2, “Salts of diphosphate phosphoramidate of nucleosides as anticancer compounds” (NuCana plc, priority 2017, dated 2023).

Molecules are shown by their SMILES. Where a name gives a salt, the structure may show the parent alone. Read-outs that look alike come from different tables or passages of the source. Bounds are passed on as bounds.

One data set has as its system HT29. The experiment in a line: CellTiterGlo cell viability assay, HT29. Conditions: Homo sapiens, HT29, 72 h; for EC50: read-out: Ab EC50; for inhibition at 198 µM: percentage inhibition at the highest concentration tested, read-out: Top Inhibit. In kind it is cell-based. In outline:
(§1)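 Duplicate wells received test compound across nine 3.16-fold steps (198 μM to 19.8 nM final) for about 3 days under standard culture. Viability was read by CTG luminescence, and absolute EC50 plus inhibition at highest dose derived.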

A further data set deals with HepG2. The experiment in a line: CellTiterGlo cell viability assay, HepG2. In kind it is cell-based. In outline:
as §1
(In general: In ATP-based viability assays light output follows the ATP content of the culture.)

In the next data set the test system is OVCAR 3. Kind of data set: CellTiterGlo cell viability assay, OVCAR 3. Type of data set: cell-based. The note with it: Homo sapiens; for inhibition at 198 µM: percentage inhibition at the highest concentration tested, read-out: Top Inhibit; for EC50: read-out: Ab EC50. The method in brief: as §1
A further data set has as its system MCF-7. Kind of data set: CellTiterGlo cell viability assay, MCF-7. Type of data set: cell-based. Conditions: Homo sapiens, MCF-7, 72 h; for EC50: read-out: Ab EC50; for inhibition at 198 µM: percentage inhibition at the highest concentration tested, read-out: Top Inhibit. In outline:
as §1

The next data set concerns CCRF-CEM. The experiment in a line: CellTiterGlo cell viability assay, CCRF-CEM. In kind it is cell-based. The note with it: Homo sapiens, 72 h; for EC50: read-out: Ab EC50; for inhibition at 198 µM: percentage inhibition at the highest concentration tested, read-out: Top Inh. In outline: as §1
The subject of a further data set is MOLT-4. The experiment in a line: CellTiterGlo cell viability assay, MOLT-4. In kind it is cell-based. In outline:
as §1

Another data set concerns K562. Kind of data set: CellTiterGlo cell viability assay, K562. Type of data set: cell-based. The note with it: Homo sapiens, K562, 72 h; for EC50: read-out: Ab EC50. In outline:
as §1

The subject of a further data set is HL-60. The experiment in a line: CellTiterGlo cell viability assay, HL-60. In kind it is cell-based. Conditions: Homo sapiens, HL-60, 72 h; for inhibition at 198 µM: read-out: Top Inh. The method in brief:
as §1

Another data set deals with RL. Kind of data set: CellTiterGlo cell viability assay, RL. Conditions: Homo sapiens, 72 h. Type of data set: cell-based. In outline: as §1
The next data set concerns RPMI-8226. The experiment in a line: CellTiterGlo cell viability assay, RPMI-8226. Conditions: Homo sapiens, RPMI-8226, 72 h. In kind it is cell-based, Human. In outline:
as §1

Another data set can be described thus: in vitro. The note with it: human, hepatocytes, pH 7.3.
For a further data set, the system named is Mia-Pa-Ca-2. Kind of data set: CellTiterGlo cell viability assay, Mia-Pa-Ca-2. Type of data set: cell-based. The note with it: Homo sapiens, MIA PaCa-2, Mia-Pa-Ca-2, 72 h; for EC50: absolute EC50, read-out: Ab EC50; for inhibition at 198 µM: percentage inhibition at the highest concentration tested, read-out: Top Inhibit. On the procedure:
A subset of compounds of the invention were assayed for their cytotoxic activity in an array of different solid tumours and haematological malignancies using the following assay.
In vitro viability assay were performed to assess the effects of compounds on cell viability in selected cell lines over 72 h using the CellTiterGlo (CTG, Promega-G7573) assay. The tests were performed in duplicates with treatment of compounds at 9 points, 3.16 folds titration in 96 well plates over ˜72 h. The compound starting concentrations were 198 μM. Cell viability assay using CellTiterGlo in 96-well plate were performed. Compound treatment 72 h, standard growth conditions, duplicates. Compounds were dissolved to 40 mM with thawed […]. Compounds were serially diluted at 3.16 fold in thawed DMSO, and warmed to 37° C. before being dissolved in media (2 μL+200 μL). After compounds were dissolved in media, media containing compounds were warmed to 37° C. in incubator and then compounds in media were added to cell plates (50 μL+50 μL) in duplicates. The compounds' final concentrations were from 198 μM to 19.8 nM. All compound solubilities were checked and recorded again, then the plates were transferred to CO2 tissue culture incubator immediately and incubated for 3 days. DMSO final concentration is 0.5%. The parent nucleoside in each case was tested as a comparator, as was an exemplary ProTide. The drugs of the ProTide class that were tested were as follows:
The following cell lines were tested and are referred to in the Table 1 below:
In Tables 2, 3 and 4, ‘Ab EC50’ refers to the absolute EC50 and ‘Top inhibit’ refers to the percentage inhibition achieved at the highest concentration tested.

The mark [1] stands for this setting: Homo sapiens, MOLT-4, 72 h, percentage inhibition at the highest concentration tested, read-out: Top Inh.
Setting [2] is: percentage inhibition at the highest concentration tested, read-out: Top Inh.
The mark [3] stands for this setting: Table 3 classes, read-out: Ab EC50.
The mark [4] stands for this setting: percentage inhibition at the highest concentration tested.
Setting [5] is: Homo sapiens; MOLT-4, 72 h, absolute EC50, numeric values; read-out: Ab EC50.
[6] abbreviates: HT-29, 72 h, absolute EC50, numeric values.
Where [7] appears, read: absolute EC50, numeric values, read-out: Ab EC50.

In the case of `Nc1nc(Cl)nc2c1ncn2[C@@H]1O[C@H](COP(=O)(O)OP(=O)(NCC(=O)OCc2ccccc2)Oc2ccccc2)C(O)[C@H]1F` (stereo partly drawn) [Example 3, 2-Chloro-9-(2′-Deoxy-2′-fluoro-β-D-arabinofuranosyl)adenine-5′-O-[phenyl(benzoxy-L-glycinyl)] Diphosphate Triethylammonium Salt], the EC50 – broadly, the midpoint of the concentration-response curve – in the data set with HT29 (HT-29, 72 h, Table 3 classes) was 0.2 to 2 µM; in the data set on HepG2 (Homo sapiens, HepG2, 72 h, Table 3 classes, read-out: Ab EC50), 2 to 5 µM; in the data set on OVCAR 3 (OVCAR 3, 72 h, Table 3 classes), greater than 10 µM; in the data set on MCF-7 (MCF7, 72 h, Table 3 classes) it was 2 to 5 µM; in the data set with CCRF-CEM (Table 3 classes) it was less than 0.2 µM; with MOLT-4 (Homo sapiens; MOLT-4, 72 h, Table 3 classes; read-out: Ab EC50) it was less than 0.2 µM. Besides, the EC50 in the data set on K562 (Table 3 classes) was greater than 10 µM; with HL-60 (setting [3]), less than 0.2 µM; in the data set on RL (setting [3]), 0.2 to 2 µM; with RPMI-8226 (setting [3]) it was 5 to 10 µM. Moreover, the inhibition at 198 µM came to 61% with HT29 (HT-29, 72 h); 53% in the data set on HepG2 (Homo sapiens, HepG2, 72 h, percentage inhibition at the highest concentration tested, read-out: Top Inhibit); 49% in the data set with OVCAR 3 (OVCAR-3, 72 h); 59% in the data set with MCF-7 (MCF7, 72 h); 99.6% in the data set on CCRF-CEM; 96% in the data set on MOLT-4 (setting [1]). For the same molecule, the inhibition at 198 µM was determined as 24% in the data set with K562 (setting [2]), 97% in the data set with HL-60 (setting [4]), 63% with RL (setting [2]) and 91.6% in the data set with RPMI-8226 (setting [2]). For the same molecule, the half-life (in general, the time needed for the level to fall by half in the phase considered) in “in vitro” lay in the range of 0.333 to 1.67 h.

On to `Nc1ccn([C@@H]2O[C@H](CO)[C@@H](O)C2(F)F)c(=O)n1` [Gemcitabine, reference compound], for which the half-maximal effective concentration (EC50) in the data set on Mia-Pa-Ca-2 is 0.03 µM; in the data set with HT29 (HT-29, absolute EC50, numeric values) it was 0.22 µM; with HepG2 (Homo sapiens; HepG2, 72 h, absolute EC50, numeric values; read-out: Ab EC50), 28 µM; with OVCAR 3 (OVCAR 3, 72 h, absolute EC50, numeric values), greater than 198 µM; with MCF-7 (MCF7, absolute EC50, numeric values) it was 0.011 µM; in the data set with CCRF-CEM (absolute EC50, numeric values), 0.02 µM. Further, in the data set with MOLT-4 (setting [5]), the EC50 was 0.004 µM. Besides, the inhibition at 198 µM was 79% in the data set with Mia-Pa-Ca-2; 65% in the data set with HT29 (HT-29); 54% in the data set on HepG2 (Homo sapiens; HepG2, 72 h, percentage inhibition at the highest concentration tested; read-out: Top Inhibit); 44% in the data set with OVCAR 3 (OVCAR 3, 72 h); 53% in the data set with MCF-7 (MCF7); 101% in the data set with CCRF-CEM. In addition, in the data set with MOLT-4 (Homo sapiens; MOLT-4, 72 h, percentage inhibition at the highest concentration tested; read-out: Top Inh), the inhibition at 198 µM was 88%.

As for `C[C@H](NP(=O)(OC[C@@H]1C[C@H](O)[C@H](n2cnc3c(N)ncnc32)O1)Oc1ccccc1)C(=O)OCc1ccccc1` (stereo partly shown) [E, reference compound], the concentration giving a half-maximal response (EC50) in the data set with Mia-Pa-Ca-2 turned out to be 7.92 µM; in the data set with HT29 (setting [6]), 10.8 µM; in the data set with MOLT-4 (Homo sapiens, MOLT-4, 72 h, absolute EC50, numeric values, read-out: Ab EC50), 5.23 µM; in the data set on K562, 11 µM; with HL-60 (read-out: Ab EC50, HL-60, 72 h, absolute EC50, numeric values), 31.1 µM; in the data set with RL (read-out: Ab EC50, RL, 72 h, absolute EC50, numeric values), 18.3 µM. In the data set on RPMI-8226 (read-out: Ab EC50, RPMI-8226, 72 h, absolute EC50, numeric values), the EC50 worked out at 19.8 µM. Further, the inhibition at 198 µM was found to be 98% with Mia-Pa-Ca-2; 97% with HT29 (HT-29, 72 h); 96% in the data set with MOLT-4 (setting [1]); 87% with K562 (read-out: Top Inh, K562, 72 h, percentage inhibition at the highest concentration tested); 97% with HL-60; 90.5% with RL (read-out: Top Inh, RL, 72 h, percentage inhibition at the highest concentration tested). Besides, the inhibition at 198 µM in the data set on RPMI-8226 (read-out: Top Inh, RPMI-8226, 72 h, percentage inhibition at the highest concentration tested) came out at 97.8%.

On to `C[C@H](NP(=O)(Oc1ccccc1)OP(=O)(O)OC[C@@H]1C[C@H](O)[C@H](n2cnc3c(N)ncnc32)O1)C(=O)OCc1ccccc1` (stereo partly drawn) [Example 6, 3′-Deoxyadenosine-5′-O-[phenyl(benzoxy-L-alaninyl)] Diphosphate Triethylammonium Salt], for which the EC50 in the data set on Mia-Pa-Ca-2 worked out at 40.9 µM; in the data set with HT29 (setting [6]), 24.3 µM; with MOLT-4 (setting [5]), 14.2 µM; with K562 (absolute EC50, numeric values), 52.3 µM; in the data set on HL-60 (setting [7]), 62.5 µM; in the data set with RL (setting [7]), 88.8 µM. Also, the inhibition at 198 µM turned out to be 95.7% with Mia-Pa-Ca-2; 82% with HT29 (HT-29, 72 h); 95% with MOLT-4 (setting [1]); 81% in the data set with K562 (setting [2]); 80% in the data set with HL-60 (setting [4]); 72% in the data set with RL (setting [2]).
